# Experimental data taken from patent US11771709B2, “ALK protein degradation agent and anti-tumor application thereof” (ShanghaiTech University, priority 2017, dated 2023).
# What was measured:
# [1] = test system: NCI-H3122 (EML4-ALK, V1) cells; experiment: Growth inhibition IC50 in lung cancer H3122 cells (Cell Titer Blue / Cell Titer Glo); conditions: for IC50: Homo sapiens, NCI-H3122, H3122 cells
# Procedure: (§1) SR (NPM-ALK) and NCI-H2228 (EML4-ALK, V3) cells were purchased from ATCC. […] All Cells were cultured in RPMI1640 medium with 10% FBS and Penicillin-Streptomycin in 37° C. incubator with 5% CO2.
# (§2) Cells were seeded at specific density in 96 well plates one day before treatment. […] Viable cells were measured via CCK8 reagent and IC50s were calculated via Prism Graphad. Experiments were repeated at least three times.
# [2] = test system: SR (NPM-ALK) cells; experiment: Growth inhibition IC50 in ALCL SR cells (CCK8/WST, 72 hours); assay type: cell-based; conditions: SR cells
# Procedure: as §1, §2
# [3] = molecular target: T1, ALK protein in H3122 (EML4-ALK) cells (Homo sapiens, UniProt Q9UM73); experiment: Western blot of ALK protein level (degradation, DC50), ALK phosphorylation and downstream signaling in H3122 cells; assay type: cell-based; conditions: for DC50: ALK protein degradation in H3122 cells
# T1 construct: EML4 (Echinoderm microtubule-associated protein-like 4, Q9HC35) fusion partner, variant 1; host or cells: NCI-H3122 lung adenocarcinoma cells; the other entry of the earlier key: EML4 (Q9HC35, Echinoderm microtubule-associated protein-like 4)
# T1 sequence (Q9UM73 with tags, fused parts or gaps): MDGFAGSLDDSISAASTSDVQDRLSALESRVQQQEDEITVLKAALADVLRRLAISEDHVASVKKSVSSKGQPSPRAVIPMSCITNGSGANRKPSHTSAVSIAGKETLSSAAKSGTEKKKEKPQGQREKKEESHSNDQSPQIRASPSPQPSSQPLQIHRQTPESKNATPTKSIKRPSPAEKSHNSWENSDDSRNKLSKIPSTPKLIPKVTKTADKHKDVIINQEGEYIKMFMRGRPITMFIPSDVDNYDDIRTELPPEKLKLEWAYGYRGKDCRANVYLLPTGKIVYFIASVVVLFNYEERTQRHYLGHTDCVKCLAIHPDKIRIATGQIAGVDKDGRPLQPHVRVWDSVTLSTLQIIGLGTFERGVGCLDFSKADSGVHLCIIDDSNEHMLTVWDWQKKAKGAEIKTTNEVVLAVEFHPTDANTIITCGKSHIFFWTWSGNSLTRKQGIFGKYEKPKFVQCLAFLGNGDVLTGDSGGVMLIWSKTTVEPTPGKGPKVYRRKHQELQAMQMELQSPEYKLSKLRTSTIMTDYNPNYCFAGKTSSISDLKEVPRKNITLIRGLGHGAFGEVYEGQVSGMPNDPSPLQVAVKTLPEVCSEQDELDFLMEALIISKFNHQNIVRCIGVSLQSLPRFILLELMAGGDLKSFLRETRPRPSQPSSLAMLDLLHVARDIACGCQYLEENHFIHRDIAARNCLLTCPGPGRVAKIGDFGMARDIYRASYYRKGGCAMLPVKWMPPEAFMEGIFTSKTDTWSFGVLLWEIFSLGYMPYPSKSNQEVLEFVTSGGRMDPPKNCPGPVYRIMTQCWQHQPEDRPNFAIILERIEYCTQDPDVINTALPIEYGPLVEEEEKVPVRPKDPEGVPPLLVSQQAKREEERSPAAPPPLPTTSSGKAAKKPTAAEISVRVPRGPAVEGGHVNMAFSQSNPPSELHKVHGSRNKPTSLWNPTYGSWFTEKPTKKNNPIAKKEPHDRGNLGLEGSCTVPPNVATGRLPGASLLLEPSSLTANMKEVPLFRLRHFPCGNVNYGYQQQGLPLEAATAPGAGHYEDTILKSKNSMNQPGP
structure (smiles),measurement,setting,value
"Cc1cc(Nc2ncc(Cl)c(Nc3ccccc3S(=O)(=O)C(C)C)n2)c(OC(C)C)cc1C1CCN(C(=O)CCCCCCC(=O)N[C@H](C(=O)N2C[C@H](O)C[C@H]2C(=O)NCc2ccc(-c3scnc3C)cc2)C(C)(C)C)CC1 [SIAIS074008, (2S,4R)-1-((S)-2-(8-(4-(4-((5-chloro-4-((2-(isopropylsulfonyl)phenyl)amino)pyrimidin-2-yl)amino)-5-isopropoxy-2-methylphenyl)piperidin-1-yl)-8-oxooctanamido)-3,3-dimethylbutanoyl)-4-hydroxy-N-(4-(4-methylthiazol-5-yl)benzyl)pyrrolidine-2-carboxamide]",growth inhibition effect,[1]; H3122 cells,IC50 at the nano mole range
same,IC50,[1]; CTB (Cell Titer Blue),428 nM
same,growth inhibition effect,[2],IC50 at the nano mole range
"Cc1cc(Nc2ncc(Cl)c(Nc3ccccc3S(=O)(=O)C(C)C)n2)c(OC(C)C)cc1C1CCN(C(=O)CCCC(=O)N[C@H](C(=O)N2C[C@H](O)C[C@H]2C(=O)NCc2ccc(-c3scnc3C)cc2)C(C)(C)C)CC1 [SIAIS074018, (2S,4R)-1-((S)-2-(5-(4-(4-((5-chloro-4-((2-(isopropylsulfonyl)phenyl)amino)pyrimidin-2-yl)amino)-5-isopropoxy-2-methylphenyl)piperidin-1-yl)-5-oxopentanamido)-3,3-dimethylbutanoyl)-4-hydroxy-N-(4-(4-methylthiazol-5-yl)benzyl)pyrrolidine-2-carboxamide]",IC50,[1]; CTB (Cell Titer Blue),209 nM
same,DC50,[3],100 to 500 nM
"Cc1cc(Nc2ncc(Cl)c(Nc3ccccc3S(=O)(=O)C(C)C)n2)c(OC(C)C)cc1C1CCN(C(=O)CCCCC(=O)N[C@H](C(=O)N2C[C@H](O)C[C@H]2C(=O)NCc2ccc(-c3scnc3C)cc2)C(C)(C)C)CC1 [SIAIS074021, (2S,4R)-1-((S)-2-(6-(4-(4-((5-chloro-4-((2-(isopropylsulfonyl)phenyl)amino)pyrimidin-2-yl)amino)-5-isopropoxy-2-methylphenyl)piperidin-1-yl)-6-oxohexanamido)-3,3-dimethylbutanoyl)-4-hydroxy-N-(4-(4-methylthiazol-5-yl)benzyl)pyrrolidine-2-carboxamide]",IC50,[1]; CTB (Cell Titer Blue),125 nM
same,DC50,[3],50 to 100 nM
"Cc1cc(Nc2ncc(Cl)c(Nc3ccccc3S(=O)(=O)C(C)C)n2)c(OC(C)C)cc1C1CCN(C(=O)CCCCCC(=O)N[C@H](C(=O)N2C[C@H](O)C[C@H]2C(=O)NCc2ccc(-c3scnc3C)cc2)C(C)(C)C)CC1 [SIAIS074022, (2S,4R)-1-((S)-2-(7-(4-(4-((5-chloro-4-((2-(isopropylsulfonyl)phenyl)amino)pyrimidin-2-yl)amino)-5-isopropoxy-2-methylphenyl)piperidin-1-yl)-7-oxoheptanamido)-3,3-dimethylbutanoyl)-4-hydroxy-N-(4-(4-methylthiazol-5-yl)benzyl)pyrrolidine-2-carboxamide]",IC50,[1]; CTB (Cell Titer Blue),269 nM
same,DC50,[3],20 to 100 nM
"Cc1cc(Nc2ncc(Cl)c(Nc3ccccc3S(=O)(=O)C(C)C)n2)c(OC(C)C)cc1C1CCN(C(=O)CCCCCCCC(=O)N[C@H](C(=O)N2C[C@H](O)C[C@H]2C(=O)NCc2ccc(-c3scnc3C)cc2)C(C)(C)C)CC1 [SIAIS074024, (2S,4R)-1-((S)-2-(9-(4-(4-((5-chloro-4-((2-(isopropylsulfonyl)phenyl)amino)pyrimidin-2-yl)amino)-5-isopropoxy-2-methylphenyl)piperidin-1-yl)-9-oxononanamido)-3,3-dimethylbutanoyl)-4-hydroxy-N-(4-(4-methylthiazol-5-yl)benzyl)pyrrolidine-2-carboxamide]",IC50,[1]; CTB (Cell Titer Blue),721 nM
same,DC50,[3],10 to 50 nM
same,concentration at which ALK protein level was reduced,"[3]; H3122 cells, western blot",50 nM
"Cc1cc(Nc2ncc(Cl)c(Nc3ccccc3S(=O)(=O)C(C)C)n2)c(OC(C)C)cc1C1CCN(C(=O)CCCCCCCCC(=O)N[C@H](C(=O)N2C[C@H](O)C[C@H]2C(=O)NCc2ccc(-c3scnc3C)cc2)C(C)(C)C)CC1 [SIAIS074025, (2S,4R)-1-((S)-2-(10-(4-(4-((5-chloro-4-((2-(isopropylsulfonyl)phenyl)amino)pyrimidin-2-yl)amino)-5-isopropoxy-2-methylphenyl)piperidin-1-yl)-10-oxodecanamido)-3,3-dimethylbutanoyl)-4-hydroxy-N-(4-(4-methylthiazol-5-yl)benzyl)pyrrolidine-2-carboxamide]",IC50,[1]; CTB (Cell Titer Blue),1240 nM
same,DC50,[3],100 to 500 nM
"Cc1cc(Nc2ncc(Cl)c(Nc3ccccc3S(=O)(=O)C(C)C)n2)c(OC(C)C)cc1C1CCN(C(=O)CCOCCOCCNc2cccc3c2C(=O)N(C2CCC(=O)NC2=O)C3=O)CC1 (stereo not shown) [SIAIS151023, 4-((2-(2-(3-(4-(4-((5-chloro-4-((2-(isopropylsulfonyl)phenyl)amino)pyrimidin-2-yl)amino)-5-isopropoxy-2-methylphenyl)piperidin-1-yl)-3-oxopropoxy)ethoxy)ethyl)amino)-2-(2,6-dioxopiperidin-3-yl)isoindoline-1,3-dione]",IC50,[1]; CTB (Cell Titer Blue),15 nM
same,IC50,[1]; CTG (Cell Titer Glo),76 nM
same,DC50,[3],10 to 100 nM
"Cc1cc(Nc2ncc(Cl)c(Nc3ccccc3S(=O)(=O)C(C)C)n2)c(OC(C)C)cc1C1CCN(C(=O)CCNc2cccc3c2C(=O)N(C2CCC(=O)NC2=O)C3=O)CC1 (stereo not shown) [SIAIS151034, 4-((3-(4-(4-((5-chloro-4-((2-(isopropylsulfonyl)phenyl)amino)pyrimidin-2-yl)amino)-5-isopropoxy-2-methylphenyl)piperidin-1-yl)-3-oxopropyl)amino)-2-(2,6-dioxopiperidin-3-yl)isoindoline-1,3-dione]",IC50,[1]; CTB (Cell Titer Blue),14 nM
"Cc1cc(Nc2ncc(Cl)c(Nc3ccccc3S(=O)(=O)C(C)C)n2)c(OC(C)C)cc1C1CCN(C(=O)CCCCNc2cccc3c2C(=O)N(C2CCC(=O)NC2=O)C3=O)CC1 (stereo not shown) [SIAIS151036, 4-((5-(4-(4-((5-chloro-4-((2-(isopropylsulfonyl)phenyl)amino)pyrimidin-2-yl)amino)-5-isopropoxy-2-methylphenyl)piperidin-1-yl)-5-oxopentyl)amino)-2-(2,6-dioxopiperidin-3-yl)isoindoline-1,3-dione]",IC50,[1]; CTB (Cell Titer Blue),31 nM
"Cc1cc(Nc2ncc(Cl)c(Nc3ccccc3S(=O)(=O)C(C)C)n2)c(OC(C)C)cc1C1CCN(C(=O)CCOCCOCCC(=O)N[C@H](C(=O)N2C[C@H](O)C[C@H]2C(=O)NCc2ccc(-c3scnc3C)cc2)C(C)(C)C)CC1 [SIAIS151038, (2S,4R)-1-((S)-2-(3-(2-(3-(4-(4-((5-chloro-4-((2-(isopropylsulfonyl)phenyl)amino)pyrimidin-2-yl)amino)-5-isopropoxy-2-methylphenyl)piperidin-1-yl)-3-oxopropoxy)ethoxy)propanamido)-3,3-dimethylbutanoyl)-4-hydroxy-N-(4-(4-methylthiazol-5-yl)benzyl)pyrrolidine-2-carboxamide]",IC50,[1]; CTB (Cell Titer Blue),393 nM
"Cc1cc(Nc2ncc(Cl)c(Nc3ccccc3S(=O)(=O)C(C)C)n2)c(OC(C)C)cc1C1CCN(C(=O)CCOCCOCCOCCC(=O)N[C@H](C(=O)N2C[C@H](O)C[C@H]2C(=O)NCc2ccc(-c3scnc3C)cc2)C(C)(C)C)CC1 [SIAIS151039, (2S,4R)-1-((S)-2-(tert-butyl)-16-(4-(4-((5-chloro-4-((2-(isopropylsulfonyl)phenyl)amino)pyrimidin-2-yl)amino)-5-isopropoxy-2-methylphenyl)piperidin-1-yl)-4,16-dioxo-7,10,13-trioxa-3-azahexadecanoyl)-4-hydroxy-N-(4-(4-methylthiazol-5-yl)benzyl)pyrrolidine-2-carboxamide]",IC50,[1]; CTB (Cell Titer Blue),441 nM
"Cc1cc(Nc2ncc(Cl)c(Nc3ccccc3S(=O)(=O)C(C)C)n2)c(OC(C)C)cc1C1CCN(C(=O)CCOCCOCCOCCOCCC(=O)N[C@H](C(=O)N2C[C@H](O)C[C@H]2C(=O)NCc2ccc(-c3scnc3C)cc2)C(C)(C)C)CC1 [SIAIS151040, (2S,4R)-1-((S)-2-(tert-butyl)-19-(4-(4-((5-chloro-4-((2-(isopropylsulfonyl)phenyl)amino)pyrimidin-2-yl)amino)-5-isopropoxy-2-methylphenyl)piperidin-1-yl)-4,19-dioxo-7,10,13,16-tetraoxa-3-azanonadecanoyl)-4-hydroxy-N-(4-(4-methylthiazol-5-yl)benzyl)pyrrolidine-2-carboxamide]",IC50,[1]; CTB (Cell Titer Blue),141 nM
"Cc1cc(Nc2ncc(Cl)c(Nc3ccccc3S(=O)(=O)C(C)C)n2)c(OC(C)C)cc1C1CCN(C(=O)CCOCCOCCOCCOCCOCCC(=O)N[C@H](C(=O)N2C[C@H](O)C[C@H]2C(=O)NCc2ccc(-c3scnc3C)cc2)C(C)(C)C)CC1 [SIAIS151041, (2S,4R)-1-((S)-2-(tert-butyl)-22-(4-(4-((5-chloro-4-((2-(isopropylsulfonyl)phenyl)amino)pyrimidin-2-yl)amino)-5-isopropoxy-2-methylphenyl)piperidin-1-yl)-4,22-dioxo-7,10,13,16,19-pentaoxa-3-azadocosanoyl)-4-hydroxy-N-(4-(4-methylthiazol-5-yl)benzyl)pyrrolidine-2-carboxamide]",IC50,[1]; CTB (Cell Titer Blue),332 nM
"Cc1cc(Nc2ncc(Cl)c(Nc3ccccc3S(=O)(=O)C(C)C)n2)c(OC(C)C)cc1C1CCN(C(=O)COCCOCC(=O)N[C@H](C(=O)N2C[C@H](O)C[C@H]2C(=O)NCc2ccc(-c3scnc3C)cc2)C(C)(C)C)CC1 [SIAIS151042, (2S,4R)-1-((S)-2-(2-(2-(2-(4-(4-((5-chloro-4-((2-(isopropylsulfonyl)phenyl)amino)pyrimidin-2-yl)amino)-5-isopropoxy-2-methylphenyl)piperidin-1-yl)-2-oxoethoxy)ethoxy)acetamido)-3,3-dimethylbutanoyl)-4-hydroxy-N-(4-(4-methylthiazol-5-yl)benzyl)pyrrolidine-2-carboxamide]",IC50,[1]; CTB (Cell Titer Blue),153 nM
"Cc1cc(Nc2ncc(Cl)c(Nc3ccccc3S(=O)(=O)C(C)C)n2)c(OC(C)C)cc1C1CCN(C(=O)CCCCCNc2cccc3c2C(=O)N(C2CCC(=O)NC2=O)C3=O)CC1 (stereo not shown) [SIAIS151043, 4-((6-(4-(4-((5-chloro-4-((2-(isopropylsulfonyl)phenyl)amino)pyrimidin-2-yl)amino)-5-isopropoxy-2-methylphenyl)piperidin-1-yl)-6-oxohexyl)amino)-2-(2,6-dioxopiperidin-3-yl)isoindoline-1,3-dione]",IC50,[1]; CTB (Cell Titer Blue),156 nM
